Source: patent US20240016875A1, “SHAN-ZHA FOR THE TREATMENT OF DEPRESSION AND ANXIETY DISORDERS” (THE OPEN UNIVERSITY, priority 2020, published 2024)
“Also recorded” adds a separate entry of the source.

Assays:
[1] = test system: BDNF; assay: Hippocampal BDNF levels (ELISA), Example 7; type: in vivo; conditions: stressed mice; 30 mg/kg (escitalopram 15 mg/kg) i.p., 3 weeks; vs vehicle
Procedure: Assessment of brain BDNF levels. Tissues are homogenized in cold extraction buffer (Tris-buffered saline, pH 8.0, with 1% NP-40, 10% glycerol, 5 mM sodium metavanadate, 10 mM PMSF, 100 mg/ml aprotinin and 10 mg/ml leupeptin). Homogenates are acidified with 0.1 M HCl (pH 3.0), incubated at room temperature (22-24° C.) for 15 min, and neutralized with 0.1 M NaOH (pH 7.6). Homogenates are then microfuged at 7,000 g for 10 min. BDNF levels in the supernatant are evaluated using sandwich ELISA.

[2] = test system: stressed mice; assay: Forced Swim Test (FST), UCMS-stressed mice, Example 7; type: in vivo; conditions: 30 mg/kg (escitalopram 15 mg/kg) i.p., 3 weeks, vs vehicle
Procedure: Animals. ICR outbred mice (Envigo RMS (Harlen), Israel) are kept in the vivarium of the Open University lab in Hadassah medical center, Jerusalem. Mice are kept on a reversed 12 h light/dark cycle and given ad libitum access to food and water. All experiments are performed during the dark phase under red light (7:00-19:00). All experiments have been approved by the committee for animal care and use according to the NIH guidelines. Drugs. Drugs are dissolved in saline and 1% DMSO to the desired concentration and administered i.p. Herbal mixture and Shan-zha (30 mg/kg) will be prepared by dissolving each component (KPC Products, Inc., CA, USA) to a final concentration of 0.47 mg/ml. […] Unpredictable chronic mild stress (UCMS). Mice are exposed to UCMS for 4 weeks at the age of 4 weeks as previously described. Forced Swim Test (FST). This test is based upon the evaluation of immobility as a measure of behavioral despair and are performed as previously described. Depressive-like behavior are expressed as the time the mouse was immobile defined as cessation of limb movements except minor movement necessary to keep the mouse afloat.

[3] = test system: stressed mice; assay: Open field test (OFT), locomotor activity, Examples 1-3; type: in vivo; conditions: UCMS-stressed male ICR mice; herbs and NHT 30 mg/kg, escitalopram 15 mg/kg i.p., 3 weeks
Procedure: ICR outbred 28-30 days old male mice (Envigo, Israel) were maintained in the vivarium of the Open University lab in Hadassah Ein Karem medical cement, Jerusalem. Mice were group housed (5 mice per cage) and each cage contained mice from all treatment groups. Mice were given ad libitum access to food and water except during stressor application (with the exclusion of the light/dark cycle reversal). Mice kept on a reversed 12 h light/dark cycle (lights on 7:00 pm-7:00 am) while experimental procedures were performed during the dark phase under red light. All experiments were approved by the Open University of Israel committee for animal care and use. Methods were carried out in accordance with the NIH guidelines.
Crataegus pinnatifida, Triticum aestivum, Lilium brownii and Fructus zizyphi jujuba were purchased as freeze-dried granules (KPC Products, Inc., Irvine, CA, USA). […]
The open field consists of an empty square arena (40×40×40 cm) and surrounded by Perspex opaque walls. Each mouse was placed in the center of the arena and video recorded for 5 min. […] Locomotor activity was expressed as the percentage of time that the mouse was moving in the arena in a velocity above 0.1 pixel/sec. […]

[4] = test system: 21 days old pups; assay: EPM in 21 days old pups treated via lactation; type: in vivo, mice
Procedure: The EPM task was performed as previously described. Shortly, each mouse was placed in the center of the maze and video recorded for 5 min. Anxiety-like behavior was expressed as the time the mouse spent in the open, unprotected arms of the maze.
Female (n=40) and male (n=5) ICR outbred mice (100 days old; Envigo RMS, Jerusalem, Israel) were housed at 22±1° C. under 12 h light/dark cycles in the vivarium of the Open University lab in Hadassah medical center, Jerusalem. Mice had ad libitum access to rodent chow and water. Mice were housed in standard cages with a bed of woodchips and a piece of cotton wool for enrichment. All experiments were performed during the dark phase of the cycle. Male mice were used to father pups and were housed apart (5 per cage) from females until mating. […] Once a vaginal plug was identified, the females were transferred to a separate cage until parturition. Overall, 455 pups were delivered of which 317 (male: n=165; female: n=152) were designated for this study. Unassessed pups were maintained with littermates to avoid additional stress and ensure similar conditions. […]
Following mating, dams were separated to individual cages and were observed periodically to ensure onset of pregnancy. […] Shortly after, anxiety-like behavior was assessed on the EPM and dams were assigned to treatment group (escitalopram/shan-zha/vehicle). […]

[5] = test system: stressed mice; assay: Elevated plus maze (EPM), UCMS-stressed mice, Examples 1-3; type: in vivo; conditions: UCMS-stressed male ICR mice; herbs and NHT 30 mg/kg, escitalopram 15 mg/kg i.p., 3 weeks; vs vehicle
Procedure: Crataegus pinnatifida, Triticum aestivum, Lilium brownii and Fructus zizyphi jujuba were purchased as freeze-dried granules (KPC Products, Inc., Irvine, CA, USA). Each herb was dissolved in saline with 1% dimethylsulfoxide (DMSO) to a final concentration of 0.47 mg/ml and injected i.p. individually (30 mg/kg) or with the other components to form the formula (NHT, 30 mg/kg). […]
The EPM task was performed as previously described [6]. Shortly, each mouse was placed in the center of the maze and video recorded for 5 min. Anxiety-like behavior was expressed as the time the mouse spent in the open, unprotected arms of the maze. […]

CN(C)CCC[C@@]1(c2ccc(F)cc2)OCc2cc(C#N)ccc21 [escitalopram]
hippocampal BDNF levels [1]: Significant elevations in hippocampal BDNF levels | depressive-like behavior in the FST [2]: exhibited reduced depressive-like behavior in the FST compared to vehicle-treated stressed mice | locomotor activity in the OFT [3]: No change in locmotor activity | stress-induced anxiety-like behavior within treatment group, pups ([4]; PND21, stressed vs naive pups): No similar stress-induced anxiety-like behavior was observed | anxiety-like behavior in the EPM, treated stressed pups vs saline-treated stressed pups ([4]; PND21, prenatal stress, treatment via lactation, dams 15 mg/kg s.c. daily): saline-treated stressed pups demonstrated elevated anxiety-like behavior compared to both shan-zha- and escitalopram-treated stressed pups; also recorded: the stress-vehicle group demonstrated increased anxiety-like behavior compared to the naïve-vehicle, stress-escitalopram and stress-shan-zha groups | time spent in the open arms of the EPM (anxiety-like behavior) [5]: spent more time in the open arms of the maze in comparison with vehicle-treated mice; also recorded: reduced anxiety-like behavior in the EPM compared to vehicle
